Measurements taken from patent US20220135622A1, “ANTIBACTERIAL PEPTIDES AND METHODS OF USE” (priority 2019, published 2022).
≈ marks a conversion by molar mass, not a printed value. Read-outs that look alike come from different tables or passages of the source. Square brackets hold non-standard residues; d marks the D form. Peptide text beside a SMILES is read from it. Bip = N[C@@H](Cc1ccc(-c2ccccc2)cc1)C(=O)O; Ahp(2) = CCCCC[C@H](N)C(=O)O; NMeM = CN[C@@H](CCSC)C(=O)O; hSer = N[C@@H](CCO)C(=O)O; NMeA = CN[C@@H](C)C(=O)O; Nle = CCCC[C@H](N)C(=O)O; Dap = NC[C@H](N)C(=O)O

Assays:
E. coli BW25113 = assay type: cell-based, Escherichia coli
Procedure, shortened: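 Growth inhibition: log-phase cells (OD600 ~0.001), peptides in 2-fold series up to 400–800 μM in MHB II, EDTA 0.5 mM (E. coli) or 0.125 mM (USA300), 4 h at 37 °C, ATP luminescence readout. MICs: inoculum at OD600 ~0.0002, with or without EDTA, 20 h at 37 °C, OD600 endpoint.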

K. pneumoniae = assay type: cell-based, Klebsiella pneumoniae
Method: (§1) Bacterial growth conditions. LB or Mueller Hinton II cation-adjusted broth (MHB II, BBL 212322) was prepared according to manufacturer's instructions and supplemented with arabinose at 0.02% for overnight growth or at indicated concentrations in the description of the figures. Bacterial cultures were grown at 37° C. When appropriate, media was supplemented with kanamycin (50 μg/mL), carbenicillin (50 μg/mL), chloramphenicol (12.5 or 25 μg/mL), hygromycin (200 μg/mL), and/or gentamicin (10 μg/mL).
(§2) Peptide sensitivity and MIC assays. Lyophilized peptides (Smartox Biotechnology, CPC Scientific. ABclonal) were solubilized to 10 mM in Tris buffer, pH 8, prior to making a 2-fold dilution series in MHBII cation adjusted broth with highest final assay concentration of 400-800 μM. Bacteria were grown to log phase and added to final OD600˜0.001. The final EDTA concentration was 0.5 mM for E. coli strains and 0.125 mM for USA300. The final volume of 10 μL/well in a 384 well black, clear bottom plate (Corning) was spun <1 min at <250×g and then incubated at 37° C. After 4 h, an equal volume (10 μL) of BacTiter-Glo™ (Promega) was added to each well and luminescence was read after 5 min on an EnVision plate reader (PerkinElmer). To measure the minimal inhibitory concentrations (MICs), bacteria from fresh overnight plates or log phase cultures were diluted with or without EDTA and peptides as described above to final OD600˜0.0002. Plates were incubated at 37° C. for 20 h before measuring OD600 with an EnVision plate reader.

A. baumannii = assay type: cell-based, Acinetobacter baumannii
Method: as §1, §2

P. aeruginosa = assay type: cell-based, Pseudomonas aeruginosa
Method: as §1, §2

E. coli ΔwaaD MCR-1 = test: MIC assay, E. coli ΔwaaD MCR-1; assay type: cell-based, Escherichia coli; details: Table 7
Method: as §1, §2

E. coli ΔwaaD + vect. = test: MIC assay, E. coli ΔwaaD + vect.; assay type: cell-based, Escherichia coli; details: Table 7
Method: as §1, §2

Compound	MIC E. coli BW25113 (E. coli BW25113; Table 8)	MIC K. pneumoniae (K. pneumoniae; Table 8)	MIC A. baumannii (A. baumannii; Table 8)	MIC R. aeruginosa (P. aeruginosa; Table 8)	MIC E coli ΔwaaD − MCR1 (E. coli ΔwaaD MCR-1)	MIC E. coli ΔwaaD + vect. (E. coli ΔwaaD + vect.)	MIC E. coli BW25113 (E. coli BW25113; BW25113)	MIC K. pneumoniae (K. pneumoniae)	MIC A. baumannii (A. baumannii)	MIC R. aeruginosa (P. aeruginosa)
CCCC[C@H](NC(=O)[C@@H]1CCCN1C(=O)[C@H](Cc1ccc(O)cc1)NC(C)=O)C(=O)N[C@H](C(=O)N[C@@H](C)C(=O)N[C@@H](CCCNC(=N)N)C(=O)N[C@@H](CCCNC(=N)N)C(=O)N[C@@H](Cc1ccccc1)C(=O)N[C@@H](CC(C)C)C(=O)N[C@@H](CCC(=O)O)C(=O)N[C@@H](CCCCN)C(=O)N[C@@H](Cc1c[nH]c2ccccc12)C(=O)NCC(=O)N[C@@H](CC(C)C)C(=O)N[C@@H](CC(C)C)C(=O)N[C@@H](CCCNC(=N)N)C(N)=O)[C@@H](C)O [compound 62] (Ac-YP[Nle]TARRFLEKWGLLR-NH2)	400 µM (≈ 824 µg/mL)	200 µM (≈ 412 µg/mL)	200 µM (≈ 412 µg/mL)	200 µM (≈ 412 µg/mL)	200 µM (≈ 412 µg/mL)	<6.25 µM	–	–	–	–
CSCC[C@H](NC(=O)[C@@H]1CCCN1C(=O)[C@H](Cc1ccc(O)cc1)NC(C)=O)C(=O)N[C@@H](CCO)C(=O)N[C@@H](C)C(=O)N[C@@H](CCCNC(=N)N)C(=O)N[C@@H](CCCNC(=N)N)C(=O)N[C@@H](Cc1ccccc1)C(=O)N[C@@H](CC(C)C)C(=O)N[C@@H](CCC(=O)O)C(=O)N[C@@H](CCCCN)C(=O)N[C@@H](Cc1c[nH]c2ccccc12)C(=O)NCC(=O)N[C@@H](CC(C)C)C(=O)N[C@@H](CC(C)C)C(=O)N[C@@H](CCCNC(=N)N)C(N)=O [compound 63] (Ac-YPM[hSer]ARRFLEKWGLLR-NH2)	400/200	200 µM (≈ 416 µg/mL)	200 µM (≈ 416 µg/mL)	400 µM (≈ 831 µg/mL)	200 µM (≈ 416 µg/mL)	<6.25 µM	–	–	–	–
CSCC[C@H](NC(=O)[C@@H]1CCCN1C(=O)[C@H](CCCNC(=N)N)NC(C)=O)C(=O)N[C@H](C(=O)N[C@@H](C)C(=O)N[C@@H](CCCNC(=N)N)C(=O)N[C@@H](CCCNC(=N)N)C(=O)N[C@@H](Cc1ccc(-c2ccccc2)cc1)C(=O)N[C@@H](CC(C)C)C(=O)N[C@@H](CCC(=O)O)C(=O)N[C@@H](CCCCN)C(=O)N[C@@H](Cc1c[nH]c2ccccc12)C(=O)NCC(=O)N[C@@H](CC(C)C)C(N)=O)[C@@H](C)O [compound 207] (Ac-RPMTARR[Bip]LEKWGL-NH2)	100.0 µM (≈ 188 µg/mL)	100.0 µM (≈ 188 µg/mL)	100.0 µM (≈ 188 µg/mL)	100.0 µM (≈ 188 µg/mL)	–	–	–	–	–	–
CSCC[C@H](NC(=O)[C@H](CN)NC(=O)[C@H](CCSC)NC(=O)[C@@H]1CCCN1C(=O)[C@H](CCCNC(=N)N)NC(C)=O)C(=O)N[C@@H](CCCNC(=N)N)C(=O)N[C@@H](CCCNC(=N)N)C(=O)N[C@@H](Cc1ccc(-c2ccccc2)cc1)C(=O)N[C@@H](CC(C)C)C(=O)N[C@@H](CCC(=O)O)C(=O)N[C@@H](CCCCN)C(=O)N[C@@H](Cc1c[nH]c2ccccc12)C(=O)NCC(=O)N[C@@H](CC(C)C)C(N)=O [compound 209] (Ac-RPM[Dap]MRR[Bip]LEKWGL-NH2)	6.25 µM (≈ 12 µg/mL)	12.5 µM (≈ 24 µg/mL)	12.5 µM (≈ 24 µg/mL)	25.0 µM (≈ 48.1 µg/mL)	–	–	–	–	–	–
CSCC[C@H](NC(=O)[C@@H]1CCCN1C(=O)[C@H](CCCNC(=N)N)NC(C)=O)C(=O)N[C@H](C(=O)N[C@@H](C)C(=O)N[C@@H](CCCNC(=N)N)C(=O)N[C@@H](CCCNC(=N)N)C(=O)N[C@@H](Cc1c[nH]c2ccccc12)C(=O)N[C@@H](CC(C)C)C(=O)N[C@@H](CCO)C(=O)N[C@@H](CCCCN)C(=O)N[C@@H](CCCNC(=N)N)C(=O)NCC(=O)N[C@@H](CC(C)C)C(N)=O)[C@@H](C)O [compound 211] (Ac-RPMTARRWL[hSer]KRGL-NH2)	50.0 µM (≈ 89.2 µg/mL)	>400.0 µM	>400.0 µM	>400.0 µM	–	–	–	–	–	–
CCCCC[C@H](NC(=O)[C@@H](NC(=O)[C@H](CCSC)NC(=O)[C@@H]1CCCN1C(=O)[C@H](CCCNC(=N)N)NC(C)=O)[C@@H](C)O)C(=O)N[C@@H](CCCNC(=N)N)C(=O)N[C@@H](CCCNC(=N)N)C(=O)N[C@@H](Cc1c[nH]c2ccccc12)C(=O)N[C@@H](CC(C)C)C(=O)N[C@@H](CCC(=O)O)C(=O)N[C@@H](CCCCN)C(=O)N[C@@H](CCCNC(=N)N)C(=O)NCC(=O)N[C@@H](CC(C)C)C(N)=O [compound 212] (Ac-RPMT[Ahp(2)]RRWLEKRGL-NH2)	100.0 µM (≈ 187 µg/mL)	>400.0 µM	200.0 µM (≈ 373 µg/mL)	>400.0 µM	–	–	–	–	–	–
COC[C@H](NC(=O)[C@@H](NC(=O)[C@H](CCSC)NC(=O)[C@@H]1CCCN1C(=O)[C@H](CCCNC(=N)N)NC(C)=O)[C@@H](C)O)C(=O)N[C@@H](CCCNC(=N)N)C(=O)N[C@@H](CCCNC(=N)N)C(=O)N[C@@H](Cc1c[nH]c2ccccc12)C(=O)N[C@@H](CC(C)C)C(=O)N[C@@H](C)C(=O)N[C@@H](CCCCN)C(=O)N[C@@H](CCCNC(=N)N)C(=O)NCC(=O)N[C@@H](CC(C)C)C(N)=O [compound 215] (Ac-RPMTS(Me)RRWLAKRGL-NH2)	–	–	–	–	–	–	200.0 µM (≈ 357 µg/mL)	>400.0 µM	>400.0 µM	>400.0 µM
CSCC[C@@H](C(=O)N[C@H](C(=O)N(C)[C@@H](C)C(=O)N[C@@H](CCCNC(=N)N)C(=O)N[C@@H](CCCNC(=N)N)C(=O)N[C@@H](Cc1c[nH]c2ccccc12)C(=O)N[C@@H](CC(C)C)C(=O)N[C@@H](C)C(=O)N[C@@H](CCCCN)C(=O)N[C@@H](CCCNC(=N)N)C(=O)NCC(=O)N[C@@H](CC(C)C)C(N)=O)[C@@H](C)O)N(C)C(=O)[C@@H]1CCCN1C(=O)[C@H](CCCNC(=N)N)NC(C)=O [compound 216] (Ac-RP[NMeM]T[NMeA]RRWLAKRGL-NH2)	–	–	–	–	–	–	100.0 µM (≈ 178 µg/mL)	>400.0 µM	>400.0 µM	>400.0 µM
Ac-RPMTARRFLAKRGL-NH2 [compound 210]	200.0 µM	>400.0 µM	>400.0 µM	>400.0 µM	–	–	–	–	–	–
Ac-RPMTARRWLAKRGL-NH2 [compound 201]	–	–	–	–	–	–	25.0 µM	>400.0 µM	>400.0 µM	>400.0 µM
Ac-RPMTARRWLEKRGL-NH2 [compound 202]	50.0 µM	>400.0 µM	>400.0 µM	>400.0 µM	–	–	–	–	–	–
Ac-RPMTFRRFLEKWGL-NH2 [compound 73]	50 µM	200 µM	50 µM	800 µM	–	–	–	–	–	–
Ac-RPMTMRRFLEKWGL-NH2 [compound 206]	200.0 µM	200.0 µM	200.0 µM	200.0 µM	–	–	–	–	–	–
Ac-RPMTSRRWLAKRGL-NH2 [compound 214]	–	–	–	–	–	–	100.0 µM	>400.0 µM	>400.0 µM	>400.0 µM
Ac-RPMTWRRFLAKRGL-NH2 [compound 203]	–	–	–	–	–	–	200.0 µM	>400.0 µM	400.0 µM	>400.0 µM
Ac-RPMTWRRFLAKYGL-NH2 [compound 200]	–	–	–	–	–	–	50.0 µM	200.0 µM	50.0 µM	50.0 µM
Ac-YPMTARRFFEKWGLLR-NH2 [compound 94]	200.0 µM	>400.0 µM	200.0 µM	>400.0 µM	–	–	–	–	–	–
Ac-YPMTARRFLQKWGLLR-NH2 [compound 72]	400 µM	400 µM	50 µM	800 µM	–	–	–	–	–	–
Ac-YPMTFRRFLAKWGLLR-NH2 [compound 87]	100.0 µM	25.0 µM	25.0 µM	50.0 µM	–	–	–	–	–	–
Ac-YPMTLRRFLEKWGLLR-NH2 [compound 83]	200.0 µM	100.0 µM	50.0 µM	200.0 µM	–	–	–	–	–	–
